Results as given in patent publication US20090054481A1 (priority 2003, published 2009).
Counter-ions that a name gives are not always drawn.

Columns and labels:
[1] = Dissolution rate of micronized drug substance (background statement); type: physicochemical; conditions: agglomerating drug substance
[2] = cited from earlier work
[3] = 25° C., cited from earlier work

Question: For `CC(C)(C)NC(=O)[C@@H]1C[C@@H]2CCCC[C@@H]2CN1C[C@@H](O)[C@H](Cc1ccccc1)NC(=O)[C@H](CC(N)=O)NC(=O)c1ccc2ccccc2n1` [Micronized saquinavir mesylate, saquinavir mesylate], which “dissolution rate (in words)” value [1] is on record?
Answer: The value was “slow dissolution rate”.

Question: With `CC(C)(C)NC(=O)[C@@H]1C[C@@H]2CCCC[C@@H]2CN1C[C@@H](O)[C@H](Cc1ccccc1)NC(=O)[C@H](CC(N)=O)NC(=O)c1ccc2ccccc2n1` [saquinavir] as the compound, how does the “Absolute bioavailability (average)” value ([2]; 8 healthy volunteers, single 600 mg dose (3×200 mg capsules) following a high fat breakfast, CV 73%) read?
Answer: The value was 4%.

Question: What about the “Absolute bioavailability (range)” value ([2]; 8 healthy volunteers, single 600 mg dose (3×200 mg capsules) following a high fat breakfast) of the same compound?
Answer: The value was 1-9%.

Question: What about the “24-hour AUC and Cmax after a higher calorie meal versus a lower calorie meal” value ([2]; n=6, on average) of the same compound?
Answer: The value was “two times higher”.

Question: With `CC(C)(C)NC(=O)[C@@H]1C[C@@H]2CCCC[C@@H]2CN1C[C@@H](O)[C@H](Cc1ccccc1)NC(=O)[C@H](CC(N)=O)NC(=O)c1ccc2ccccc2n1` [Saquinavir mesylate] as the compound, how does the “solubility in simulated gastric fluid” value ([3]; simulated gastric fluid) read?
Answer: The value was 80 µg/mL.

Question: And the “solubility in simulated intestinal fluid” value ([3]; simulated intestinal fluid)?
Answer: Its value is “practically insoluble”.
